Test results as given in US20210213104A1, “GLUCAGON AND GLP-1 CO-AGONISTS FOR THE TREATMENT OF CHRONIC KIDNEY DISEASE AND DIABETIC KIDNEY DISEASE IN TYPE 2 DIABETES” (MEDIMMUNE LIMITED, priority 2020, published 2021).

Columns and labels:
Assay type in all cases: in vivo, human
[1] = Phase 2a: pharmacokinetics in plasma (LC/MS-MS)
Description: Blood was collected to evaluate to pharmacokinetics (PK) of Cotadutide in plasma. The PK was measured using a validated liquid chromatography-tandem mass spectrometry (LC/MS-MS) method.
Pharmacokinetic characterization of Cotadutide at 300 μg was obtained using full PK profiles collected during the last day of dosing at 300 μg (Day 32). Additional Ctrough concentrations were collected through the study duration to check exposure.

[2] = tested on: subjects with T2DM and renal impairment; assay: Phase 2a: blood pressure and heart rate (ABPM and office-based)
Description: After instruction, subjects set up and applied an ambulatory blood pressure monitoring (ABPM) device. The subjects were advised to undergo normal daily activities while wearing the cuff and to avoid any strenuous forms of activity, bathing, or showering while wearing the cuff. The subjects were advised to remain still during the measurement with the arm relaxed at heart level. During ABPM, systolic BP, diastolic BP, heart rate pressure, heart rate, and mean arterial pressure readings were recorded over a period of 24 hours.
Based on post-hoc analysis, ABPM measurements were as follows: mean change from baseline to Day 32: −1.15 mmHg vs 2.21 mmHg (systolic, Cotadutide vs Placebo) and 2.54 mmHg vs 1.84 mmHg (diastolic, Cotadutide vs Placebo). Increases in supine blood pressure from baseline were also observed after 32 days of treatment: 1.44 mmHg vs 8.69 mmHg (systolic, Cotadutide vs placebo) and 0.57 mmHg vs 3.40 mmHg (diastolic, Cotadutide vs placebo); however, these changes were also not clinically significant and were numerically greater in the placebo group.
Based on office-based measurement, increases in postural blood pressure difference were observed after 32 days of treatment: 8.9 mmHg vs 0 1 mmHg (systolic, Cotadutide vs placebo) and 0.8 mmHg vs 1 8 mmHg (diastolic, Cotadutide vs placebo); however, these changes were not clinically significant.
By Day 32, the LS mean change from baseline in pulse rate (office-based measure) was an increase of 14.13 bpm for subjects in the Cotadutide dose group and 3.14 bpm for subjects in the placebo dose group (p <0.001). […] Mean heart rate changes from baseline to Day 32 were numerically greater while asleep (13.06 bpm vs −2.28 bpm) compared to awake (10.78 bpm vs −0.80 bpm) for subjects on Cotadutide vs placebo, respectively.

[3] = tested on: subjects with T2DM and renal impairment; assay: Phase 2a: anti-drug antibody (ADA) screening assay
Description: Blood samples were collected to evaluate anti-drug antibody (ADA) response to Cotadutide. A screening assay in the form of a traditional ligand-binding “birding” assay using electrochemiluminescence was used to determine ADA-positive samples.
Development of ADA and titres (in any subjects testing positive) were assessed (As-treated population). No subjects tested positive for ADA at baseline. A total of 2 subjects (4.9%) were ADA positive post-baseline (both subjects [9.5%] in the Cotadutide dose group). […] 1 subject was ADA positive at Day 12 (titer ≤5) but negative at subsequent visits. One subject was ADA positive at Day 32 (titer=2560) and remained positive at the Day 60 follow-up visit (titer=160); at 6 months after their last visit; the antibody titer was 10, and therefore, no additional follow-up was deemed necessary for this subject.

[4] = tested on: subjects with T2DM and renal impairment; assay: Phase 2a: urine albumin:creatinine ratio (UACR); settings: for UACR Relative Change from Baseline to End of Dosing (vs. Placebo): subjects with mean UACR > 3 mg/mmol at baseline (micro- or macroalbuminuria), 1-exponential of fold change
Description: Cotadutide was titrated from 50 μg up to 300 μg and administered once daily by subcutaneous (SC) injection over 32 days.
Cotadutide was administered at 50 μg once daily for 4 days, followed by 100 μg daily for 7 days, 200 μg daily for 7 days, and 300 μg daily for 14 days (n=20). Placebo was administered one daily for 32 days (n=20). Cotadutide and placebo were administered in the morning. Dosing commenced following predose baseline vital signs, blood tests (including HbA1c), an electrocardiogram (ECG), body weight measurement, and bioimpedance spectroscopy (BIS). Subjects then returned for daily dosing or remained overnight locally until Day 5, and thereafter, had visits at weekly intervals until a maintenance dose of 300 μg was established. Thus, Cotadutide or placebo was administered at the study site by study personal for the first four doses and on site on Days 5, 12, 19, and 32. At all other times, subjects preformed dosing at home.
Mean urine albumin:creatinine ratio (UACR) was lower in the Cotadutide dose group compared to placebo from Day 19 until the end of dosing, and for 8 days into the follow-up period.

[5] = office-based measurement, after 32 days
[6] = subjects with mean UACR > 3 mg/mmol at baseline
[7] = subjects with mean UACR > 3 mg/mmol at baseline, ITT

CCCCCCCCCCCCCCCC(=O)N[C@@H](CCC(=O)NCCCC[C@H](NC(=O)[C@H](CC(=O)O)NC(=O)[C@H](CO)NC(=O)[C@@H](NC(=O)[C@H](Cc1ccccc1)NC(=O)[C@@H](NC(=O)CNC(=O)[C@H](CCC(N)=O)NC(=O)[C@H](CO)NC(=O)[C@@H](N)Cc1c[nH]cn1)[C@@H](C)O)[C@@H](C)O)C(=O)N[C@@H](CO)C(=O)N[C@@H](CCC(=O)O)C(=O)N[C@@H](Cc1ccc(O)cc1)C(=O)N[C@@H](CC(C)C)C(=O)N[C@@H](CC(=O)O)C(=O)N[C@@H](CO)C(=O)N[C@@H](CCC(=O)O)C(=O)N[C@@H](CCCNC(=N)N)C(=O)N[C@@H](C)C(=O)N[C@@H](CCCNC(=N)N)C(=O)N[C@@H](CC(=O)O)C(=O)N[C@@H](Cc1ccccc1)C(=O)N[C@H](C(=O)N[C@@H](C)C(=O)N[C@@H](Cc1c[nH]c2ccccc12)C(=O)N[C@@H](CC(C)C)C(=O)N[C@@H](CCC(=O)O)C(=O)N[C@@H](C)C(=O)NCC(=O)NCC(=O)O)C(C)C)C(=O)O [Cotadutide]
AUC ([1]; human, plasma, 300 ug, Day 32, 300 μg SC, geometric mean, N = 16): 286 ng·h/mL
Cmax ([1]; human, plasma, 300 ug, Day 32, 300 μg SC, geometric mean, N = 18): 16.9 ng/mL
Tmax ([1]; human, plasma, 300 ug, Day 32, 300 μg SC, median, N = 18): 5.6 h
PK linearity for Ctrough ([1]; repeat daily SC doses 50 to 300 μg): linear PK
Mean heart rate change from baseline to Day 32, asleep ([2]; ABPM): 13.06 bpm
Mean heart rate change from baseline to Day 32, awake ([2]; ABPM): 10.78 bpm
LS mean change from baseline in pulse rate (office-based measure) ([2]; Day 32): 14.13 bpm
changes in blood pressure ([2]; after 32 days of treatment): no clinically or statistically significant changes
supine diastolic blood pressure, increase from baseline ([2]; after 32 days of treatment): 0.57 mmHg
supine systolic blood pressure, increase from baseline ([2]; after 32 days of treatment): 1.44 mmHg
changes in blood pressure ([2]; after 32 days of treatment, listed as cotadutide): no significant changes
Pulse rate increase ([2]; by day 32, P<0.001): 11 beats per minute
differences in heart rate from baseline ([2]; end of the study (Day 60)): no meaningful differences
increase in postural blood pressure difference, diastolic [2, 5]: 0.8 mmHg
increase in postural blood pressure difference, systolic [2, 5]: 8.9 mmHg
24-hour heart rate by ABPM, mean increase from baseline to Day 32 ([2]; post-hoc analysis): 11.85 bpm
ABPM diastolic blood pressure, mean change from baseline to Day 32 ([2]; post-hoc analysis): 2.54 mmHg
ABPM systolic blood pressure, mean change from baseline to Day 32 ([2]; post-hoc analysis): −1.15 mmHg
ADA titer, one subject ([3]; 6 months after last visit): 10
subjects ADA positive post-baseline, number ([3]; As-treated population): 2 subjects
subjects ADA positive post-baseline, percentage of dose group ([3]; As-treated population): 9.5%
ADA titer, one subject ([3]; Day 12, negative at subsequent visits): ≤ 5
ADA titer, one subject ([3]; Day 32): 2560
ADA titer, one subject ([3]; Day 60 follow-up visit): 160
treatment-boosted ADA ([3]; baseline titer boosted 4-fold or higher): No subjects
Urine Albumin/Creatinine, End of Dosing (Day 33), Mean ([4]; Total, ITT): 10.06 mg/mmol
Urine Albumin/Creatinine, End of Dosing (Day 33), Median ([4]; Total, ITT): 2.00 mg/mmol
UACR LS Mean Change ([4]; baseline to Day 33, ANCOVA, Total, ITT): -3.05 mg/mmol
UACR Change from Baseline, Mean ([4]; baseline to Day 33, Total, ITT): -3.05 mg/mmol
UACR Change from Baseline, Median ([4]; baseline to Day 33, Total, ITT): -0.60 mg/mmol
UACR Difference in LS Mean Change (vs Placebo) ([4]; baseline to Day 33, Total, ITT): -5.07 mg/mmol
Fold Change in Log-Transformed UACR (vs. Placebo) ([4]; baseline to end of dosing, subjects with mean UACR > 3 mg/mmol at baseline): −0.70
UACR Geometric Mean (end of dosing relative to baseline) [4, 6]: 0.511
UACR Geometric Mean Ratio (vs. Placebo) [4, 6]: 0.4945
UACR Relative Change from Baseline to End of Dosing (vs. Placebo) [4]: 50.6%
UACR Relative Change from Baseline to End of Dosing (vs. Placebo) ([4]; listed as MEDI0382): 50.55%
Log-transformed UACR, End of Dosing (Day 33), Mean [4, 7]: 1.767
Log-transformed UACR, End of Dosing (Day 33), Median [4, 7]: 1.253
